Reference: ChEMBL document CHEMBL3817801, “Synthesis and steroid sulfatase inhibitory activities of N-phosphorylated 3-(4-aminophenyl)-coumarin-7-O-sulfamates” (Medchemcomm, 2016)

Biological target: T1, Steryl-sulfatase (Homo sapiens, UniProt P08842)
T1 sequence (P08842 whole entry): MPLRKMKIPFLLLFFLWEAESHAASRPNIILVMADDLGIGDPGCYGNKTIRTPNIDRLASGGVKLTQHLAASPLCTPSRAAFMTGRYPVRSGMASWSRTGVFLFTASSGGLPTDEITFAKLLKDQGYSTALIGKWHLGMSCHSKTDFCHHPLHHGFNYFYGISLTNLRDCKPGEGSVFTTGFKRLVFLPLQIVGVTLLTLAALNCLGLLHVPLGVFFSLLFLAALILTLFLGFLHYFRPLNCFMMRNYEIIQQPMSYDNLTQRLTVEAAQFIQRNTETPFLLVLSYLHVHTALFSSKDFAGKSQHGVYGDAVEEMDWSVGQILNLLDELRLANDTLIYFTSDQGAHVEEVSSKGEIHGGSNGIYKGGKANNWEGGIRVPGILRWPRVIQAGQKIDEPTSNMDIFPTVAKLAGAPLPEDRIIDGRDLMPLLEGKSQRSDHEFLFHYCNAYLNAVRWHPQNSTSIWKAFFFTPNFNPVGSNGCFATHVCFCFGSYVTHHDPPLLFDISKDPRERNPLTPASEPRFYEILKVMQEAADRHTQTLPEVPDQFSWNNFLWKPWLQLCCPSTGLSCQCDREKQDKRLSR
Assay: Inhibition of human placental steroid sulfatase using p-nitrophenyl sulfate as substrate after 15 mins by microplate reader method

Compound | IC50 [nM]
NS(=O)(=O)Oc1ccc2cc(-c3ccc(NP4(=O)OCCCO4)cc3)c(=O)oc2c1 | 700
CC(C)OP(=O)(Nc1ccc(-c2cc3ccc(OS(N)(=O)=O)cc3oc2=O)cc1)OC(C)C | 470
NS(=O)(=O)Oc1ccc2ccc(=O)oc2c1 | 1380
COP(=O)(Nc1ccc(-c2cc3ccc(OS(N)(=O)=O)cc3oc2=O)cc1)OC | 780
Cc1cc(=O)oc2cc(OS(N)(=O)=O)ccc12 | 1030
CCOP(=O)(Nc1ccc(-c2cc3ccc(OS(N)(=O)=O)cc3oc2=O)cc1)OCC | 510
NS(=O)(=O)Oc1ccc2cc(-c3ccc(NP(=O)(Oc4ccccc4)Oc4ccccc4)cc3)c(=O)oc2c1 | 190

The remaining molecules from weak to strong by IC50, led by results:

IC50 [nM] | Compound
450 | CC1(C)COP(=O)(Nc2ccc(-c3cc4ccc(OS(N)(=O)=O)cc4oc3=O)cc2)OC1
310 | CCCCOP(=O)(Nc1ccc(-c2cc3ccc(OS(N)(=O)=O)cc3oc2=O)cc1)OCCCC
240 | NS(=O)(=O)Oc1ccc2cc(-c3ccc(NP(=O)(OCc4ccccc4)OCc4ccccc4)cc3)c(=O)oc2c1
